Values of other authors in US6908924B2, “N4-acylcytosine-1,3-dioxolane nucleosides for treatment of viral infections” (Pharmasset, Inc., priority 2001, dated 2005).

Assays:
[1] = biological target: HIV reverse transcriptase (HIV-RT) (Human immunodeficiency virus type 1 group M subtype B, UniProt P04585)
HIV-1 = details: as a reverse transcriptase inhibitor (RTI)

## Nc1nc2c(ncn2[C@H]2CO[C@@H](COP(=O)(O)OP(=O)(O)OP(=O)(O)O)O2)c(=O)[nH]1 [DXG-TP]
[1]
  Ki: 19 nM

## Nc1nc(N)c2ncn([C@H]3CO[C@@H](CO)O3)c2n1 [DAPD, (−)-(2R,4R)-2-amino-9-[(2-hydroxymethyl)-1,3-dioxolan-4-yl]adenine]
HIV-1
  inhibition of HIV-1 replication in vitro: selective inhibitor
